In patent US20230364032A1, “USE OF 2-HOBA TO TREAT ATHEROSCLEROSIS” (Vanderbilt University, priority 2020, published 2023):
“Also recorded” adds a separate entry of the source.

What was measured:
Phospho-Akt (S473) = assay: Akt signaling in macrophages (phospho-Akt Western blot); type: cell-based, mouse; conditions: 250 μM, 1 hour; absence and presence of insulin; vehicle, 4-HOBA, 2-HOBA compared
Protocol: WT macrophages were treated with or without vehicle (water), 250 μM 4-HOBA or 2-HOBA for 1 hour, and then incubated with or without 100 nM insulin as indicated for 15 min. Phospho-Akt (S473) and GAPDH were detected by Western Blotting (19A). The band density was quantitated by ImageJ software (19B). Two independent experiments were performed.

[1] = 2-HOBA and 4-HOBA levels in plasma and tissues of Ldlr−/− mice (LC/MS); type: in vivo; conditions: for concentration at 16 weeks: Ldlr−/− on C57BL/6 background, mouse, plasma, oral, 1 g/L in drinking water, male Ldlr−/− mice after 16 weeks of treatment with 1 g/L of water; for levels in the aorta and heart / plasma levels of 2-HOBA versus 4-HOBA: male Ldlr−/− mice; for levels in the aorta and heart: 30 min after oral gavage; for plasma levels of 2-HOBA versus 4-HOBA: 30 min after oral gavage of 5 mg
Protocol: FIG. 11A-11C show the concentration of 2-HOBA or 4-HOBA was measured in plasma and tissues from Ldlr^−/− mice. A. Eight week old male Ldlr^−/− mice were fed WD for 16 weeks and were continuously treated with water containing either 2-HOBA (n=9) or 4-HOBA (n=6). Plasma was collected 30 min after oral gavage of mice with either 2-HOBA or 4-HOBA (5 mg each mouse). (Mean±SEM shown for each, p=0.388 Mann-Whitney Test.) B-C. Levels of HOBA were measured in the aorta and heart of male Ldlr^−/− mice consuming a chow diet 30 min after oral gavage of 2-HOBA or 4-HOBA (5 mg each mouse). (Mean±SEM shown for each, N.S. Student t test). The levels of 2-HOBA or 4-HOBA were measured in the plasma and tissues using LC/MS as described in the Methods.
Ldlr^−/− and WT on C57BL/6 background mice were obtained from the Jackson Laboratory. Animal protocols were performed according to the regulations of Vanderbilt University's Institutional Animal Care and Usage Committee. Mice were maintained on chow or a Western-type diet containing 21% milk fat and 0.15% cholesterol (Teklad). Eight week old, female Ldlr^−/− mice on a chow diet were pretreated with vehicle alone (Water) or containing either 1 g/L of 4-HOBA or 1 g/L of 2-HOBA. 4-HOBA (as hydrochloride salt) was synthesized as previously described^21. 2-HOBA (as the acetate salt, CAS 1206675-01-5) was manufactured by TSI Co., Ltd. (Missoula, MT) and obtained from Metabolic Technologies, Inc., Ames, IA^24. A commercial production lot was used (Lot 16120312), and the purity of the commercial lot was verified to be >99% via HPLC and NMR spectroscopy^24. After two weeks, the mice continued to receive these treatments but were switched to a western diet for 16 weeks to induce hypercholesterolemia and atherosclerosis. Similarly, 12 week-old male Ldlr^−/− mice were pretreated with vehicle alone (water) or containing 1 g/L of 2-HOBA for two weeks and were then switched to a western diet for 16 weeks to induce hypercholesterolemia and atherosclerosis, while continuing the treatment with 2-HOBA or water alone^58, 59, 60 Based on the average weight and daily consumption of water per mouse the estimated daily dosage with 1 g/L of 2-HOBA is 200 mg/Kg. […] Eight week old, male Ldlr^−/− mice were fed a western diet for 16 weeks and were continuously treated with water containing either 2-HOBA or 4-HOBA. Urine samples were collected using metabolic cages (2 mice in one cage) during 18 h after oral gavage with either 2-HOBA or 4-HOBA (5 mg each mouse).
(§1) Measurement of 2-HOBA and 4-HOBA was performed by LC/MS after derivatization with phenylisothiocyanate (PITC), and using [^2H4]-2-HOBA as an internal standard as previously described for 2-HOBA^71 (See FIG. 23). For these assays, the Waters Xevo-TQ-Smicro triple quadrupole mass spectrometer operating in positive ion multiple reaction monitoring (MRM) mode monitored the following transitions: for PITC-2-HOBA or PITC-4-HOBA, m/z 259→107@20 eV (quantifier transition) and m/z 259→153 @20 eV (qualifier transition); for PITC-[^2H4]2-HOBA m/z 263 →107@20 eV (quantifier transition), m/z 263→111 @20 eV (qualifier transition). Abundance for PITC-2-HOBA was calculated based on the ratio of peak area versus that of PITC-[^2H4]2-HOBA. Because the transition reactions for PITC-4-HOBA are less efficient than for PITC-2-HOBA, the ratio of peak areas for PITC-4-HOBA/PITC-[^2l H4]2-HOBA was multiplied by the correction factors 3.9 and 5.7 when using the m/z 107 and m/z 153 transition, respectively (See FIG. 24).

[2] = previous in vitro studies; cited from earlier work
[3] = 2-HOBA and 4-HOBA levels in plasma and tissues of C57BL/6J mice after intraperitoneal injection (LC/MS); type: in vivo, mouse; conditions: for liver, spleen, and kidney levels of 2-HOBA versus 4-HOBA: 30 min after intraperitoneal injection
Protocol: FIG. 12A-12D show the levels of 2-HOBA or 4-HOBA in plasma and tissues from C57BL/6J mice. A. Plasma samples were collected from female C57BL/6J mice on a chow diet after intraperitoneal injection of 1 mg 2-HOBA (n=3) or 1 mg 4-HOBA (n=3). *p<0.01, Student t test. B-D. Levels of 2-HOBA and 4-HOBA in liver (B), spleen (C), and kidney (D) of WT mice 30 min after intraperitoneal injection. (Mean±SEM shown for each, N.S. Student t test). The levels of 2-HOBA or 4-HOBA were measured in the plasma and tissues using LC/MS as described in the Methods.
as §1

[4] = system: MDA- and IsoLG-lysyl adducts; assay: Aorta dilysyl-MDA crosslinks and IsoLG-lysyl adducts by LC/MS/MS; type: in vivo, mouse; conditions: Ldlr−/− mice
Protocol: Isolation and LC/MS measurement of isolevuglandin-lysyl-lactam (IsoLG-Lys) adducts from aorta of 2-HOBA and 4-HOBA treated Ldlr^−/− mice were performed using a Waters Xevo-TQ-Smicro triple quadrupole mass spectrometer as previously described^69.
Samples (around 1 mg of protein) were digested with proteases as previously described for lysyl-lactam adducts^70. Five nanograms of ^13C6-dilysyl-MDA crosslink standard were added to each cell sample and dilysyl-MDA crosslinks were purified as previously described^71. The dilysyl-MDA crosslink was quantified by isotopic dilution by LC-EST/MS/MS as previously described^71.

Row | SMILES | pAKT levels in macrophages (Phospho-Akt (S473)) | concentration at 16 weeks [1] [ng/mL] | levels in the aorta and heart [1] | plasma levels of 2-HOBA versus 4-HOBA [1] | reactivity with lipid dicarbonyls / dicarbonyl scavenging [2] | liver, spleen, and kidney levels of 2-HOBA versus 4-HOBA [3] | clearance, 4-HOBA vs 2-HOBA ([3]; after intraperitoneal injection) | plasma levels after intraperitoneal injection, 4-HOBA vs 2-HOBA ([3]; female C57BL/6J mice, 1 mg i.p.) | MDA and IsoLG adduct content of atherosclerotic lesions/aortas [4] | decrease of whole aorta IsoLG-lysyl adduct content ([4]; compared to 4-HOBA treatment) [%] | decrease of whole aorta MDA-lysyl adduct content ([4]; compared to 4-HOBA treatment) [%]
1 | NCc1ccc(O)cc1 [4-HOBA, 4-hydroxybenzylamine, reference compound] | no difference | 25 ± 3 | similar | not significantly different | poor reactivity; also recorded: ineffective | not significantly different | more rapid clearance; also recorded: cleared more rapidly | slightly higher initially | – | – | –
2 | NCc1ccccc1O [2-HOBA, 2-hydroxybenzylamine] | no difference; also recorded: does not influence | 469 ± 38 | similar | not significantly different | rapidly reacts | not significantly different | – | – | decreases; also recorded: markedly reduced | 23 | 59
